Results: patent publication US20190167814A1, “Treatment And/Or Prevention Of DNA-Triplet Repeat Diseases Or Disorders” (UNIVERSITÉ DE LAUSANNE, priority 2016, published 2019)

Tests used:
GFP(CAG)101 cells [1] = assay: Cell viability (TO-PRO-3 dead cell marker, flow cytometry); assay type: cell-based; conditions: Cas9 D10A + gCTG transfected cells treated with DMSO or inhibitor (1 μM); three experiments
Procedure: (§1) In preparation for flow cytometry analysis, cells were re-suspended in phosphate buffered saline (PBS) with 1 mM EDTA to a concentration of about 10^6 cells/mL. For each condition, we measured at least 2×10^5 events using a LSRII from BD. Data analysis was done using Flowing II. FACS was performed using a FACS Aria II (BD) or MoFlo Astrios (Beckman Coulter). For single clone analyses, we re-suspended the cells to a concentration of 2×10^6 cells/mL and sorted the GFP^− and GFP^+ cells. The cells were then expanded in DMEM glutamax supplemented with pen-strep, blasticidine, hygromycin, 5% FBS, and 5% dialyzed calf serum. For DNA isolation, cells were re-suspended to a concentration of 1.4×10^7 cells/mL and we isolated between 4×10^4 and […] from the GFP− and GFP^+ populations. We also isolated cells with GFP intensities between the 25th and 75th percentiles. For viability tests, cells were treated as described above except that 96 hours after the first transfection they were collected in PBS with 1 mM EDTA and 1 μM of TO-PRO-3 was added as a dead cell marker.

GFP(CAG)101 cells [2] = assay: GFP-based assay for CAG repeat expansions and contractions (flow cytometry of GFP- and GFP+ cells); assay type: cell-based, human; conditions: for frequency of GFP+ cells (contractions) induced by Cas9 nickase + gCTG under inhibitor, in words: inhibitor 1 μM, compared to DMSO controls; for Cas9 nickase + gCTG-induced GFP-/GFP+ cells on siRNA knockdown, in words: 20 nM siRNA, compared to control knockdown of vimentin
Procedure: (§2) The GFP(CAG)0 and GFP(CAG)101 cells lines were a kind gift from John H. Wilson^3. The cells tested negative for mycoplasma using the MycoAlert detection kit (Lonza) at the start of our experiments. The GFP(CAG)15, GFP(CAG)18, GFP(CAG)42, GFP(CAG)50, and GFP(CAG)270 were isolated from populations grown for 6 months unperturbed or after transfection with the ZFN. […] The cells were maintained at 37° C. with 5% CO2 in Dulbecco's modified Eagle's medium (DMEM) glutamax, supplemented with 10% Fetal Bovine Serum (FBS), 100 U/mL penicillin (pen), 100 μg/mL streptomycin (strep), 15 μg/mL blasticidine and 150 μg/mL hygromycin. When the cells were destined for flow cytometry, they were kept in DMEM glutamax, with 10% of dialyzed calf serum, along with pen-strep. During the long term culturing, the cells were split 1 to 5 twice a week and the medium was supplemented with blasticidine and hygromycin to ensure continued expression of the TetR and GFP transgenes.
The plasmids used in this study are found in Table 2. cDNA transfections were performed using 6×10^5 cells/well in 12-well plates using a total of 1 μg of DNA and Lipofectamine 2000 (Life Technologies) per well. The culture medium was replaced 6 hours after transfection and 2 μg/mL of dox, diluted in DMSO, was added. Controls without dox were treated with DMSO alone. Forty-eight hours later, the medium was replaced and dox was freshly added. Flow cytometry, protein extraction, and/or DNA extraction were performed after another 48 hours of incubation.
The siRNAs used in this study are found in Table 3. When transfecting with both a cDNA and a siRNA, 8×10^5 cells/well were used along with 1 μg of DNA and 20 nM of siRNAs using Lipofectamine 2000. The medium was replaced 6 hours later and dox was added. Forty-eight hours after the first transfection, we performed a second siRNA transfection with RNAiMax (Life technologies) using half of the cells present and 20 nM of siRNA. We collected the cells to assess knockdown efficiency or GFP fluorescence analysis 48 hours later. When transfecting two siRNAs, we used a final siRNA concentration of 40 nM, where 20 nM of each individual siRNA were used.
(§3) When using small molecule inhibitors (Table 4), the cells were treated as above, except that 2×10^5 fewer cells/well were used. The medium, along with the dox and the inhibitors, were replaced for another 48 hours of treatment. Cell cycle analysis was performed after 96 hours of treatment. Briefly, the cells were fixed with 100% ethanol and treated with RNAseA (50 μg/mL) before adding propidium iodine (50 μg/mL). Flow cytometry analysis was performed as described below.
as §1
To quantify the fold increase in the number of GFP^+ or GFP^− cells, we first established gates that contained the top or bottom 1% of GFP expressing cells in the control treatment, for example the nickase plasmid transfected together with an empty gRNA vector (pPN10). […]

GFP(CAG)101 cells [3] = assay: Cell cycle analysis upon inhibitor treatment (propidium iodine, flow cytometry); assay type: cell-based, human; conditions: for >2n / >4n / G1 / G2 / S: Cas9 D10A + gCTG cells, DMSO or inhibitor 1 μM, 96 hours, average % of cells, n = 4
Procedure: as §3

PARP1/2 = assay: PAR levels after Zeocin treatment (western blot); assay type: cell-based, human; conditions: 100 μg/ml Zeocin, 30 minutes and 24 hours
Text: Dashed line: dimmest (GFP^−) or brightest (GFP^+) 1% of the cells transfected with the Cas9 nickase vector; the empty gRNA plasmid; and the indicated siRNAs. Right: western blot showing knockdown efficiency by siRNA against XRCC1. B) Left: same as A, but cells treated with the PARP inhibitor Oliparib (n=4, P=0.5 for GFP^− cells and P=0.4 for GFP^+ compared to DMSO treated-cells, using a Wilcoxon U-test). Dashed line: dimmest (GFP^−) or brightest (GFP^+) 1% of the cells transfected with the Cas9 nickase vector together with the empty gRNA plasmid, and treated with either DMSO or Oliparib. Right: PAR levels 30 minutes and 24 hours after treatment with 100 μg/ml of Zeocin. The error bars represent the standard error.
Protein extraction was done using RIPA buffer and proteinase inhibitor cocktail tablets (Roche, Germany) and at least 10 μg of proteins were loaded onto a 6% or 10% Tris/glycine SDS polyacrylamide gels and transferred onto nitrocellulose membranes. The antibodies used in this study are found in Table 6. An Odyssey Infrared Imager (Licor) was used for signal detection.

GFP(CAG)0 cells = assay: GFP-based reporter assay in isogenic cell line devoid of CAG repeats; design: species or system human; conditions: GFP(CAG)0, no CAG repeats
Procedure: as §2, with “When the cells were destined for flow cytometry, they were kept in DMEM glutamax, with 10% of dialyzed calf serum, along with pen-strep. During the long term culturing, the cells were split 1 to 5 twice a week and the medium was supplemented with blasticidine and hygromycin to ensure continued expression of the TetR and GFP transgenes.” left out
In preparation for flow cytometry analysis, cells were re-suspended in phosphate buffered saline (PBS) with 1 mM EDTA to a concentration of about 10^6 cells/mL. For each condition, we measured at least 2×10^5 events using a LSRII from BD. […]
To quantify the fold increase in the number of GFP^+ or GFP^− cells, we first established gates that contained the top or bottom 1% of GFP expressing cells in the control treatment, for example the nickase plasmid transfected together with an empty gRNA vector (pPN10). […] Once the GFP gates established, we calculated the percentage of cells from the treated population (e.g., expressing both the Cas9 nickase and the gCTG) falling within these same gates. […]

[4] = inhibitor 1 μM in combination with Cas9-nickase and gCTG, vs nickase + pPN10 + inhibitor

Molecule	Viability % (GFP(CAG)101 cells [1]) [%]	frequency of GFP+ cells (contractions) induced by Cas9 nickase + gCTG under inhibitor, in words (GFP(CAG)101 cells [2])	>2n (GFP(CAG)101 cells [3]) [%]	>4n (GFP(CAG)101 cells [3]) [%]	G1 (GFP(CAG)101 cells [3]) [%]	G2 (GFP(CAG)101 cells [3]) [%]	S (GFP(CAG)101 cells [3]) [%]	Cas9 nickase + gCTG-induced GFP-/GFP+ cells on siRNA knockdown, in words (GFP(CAG)101 cells [2])	further results
C[C@@H]1CN(CC(=O)Nc2ccc3c(c2)Cc2cccc(-c4cc(=O)cc(N5CCOCC5)o4)c2S3)C[C@H](C)O1 [KU60019]	77.2	nearly two-fold reduction	7.5	4.9 ± 1	34.9	37.2	15.3		
O=C(c1cc(Cc2n[nH]c(=O)c3ccccc23)ccc1F)N1CCN(C(=O)C2CC2)CC1 [Oliparib]	75.9	Neither treatment changed the frequency	5.0	5.3 ± 1	40.7	30.0	19.0		PARylation in response to zeocin treatment (PARP1/2): inhibiting PARylation; cell cycle effect, in words (GFP(CAG)101 cells [3]): accumulation of G2 cells
CS(=O)(=O)c1ccc(-c2cnc(N)c(C(=O)Nc3ccccc3)n2)cc1 [VE-821]			2.0	10.3 ± 3	41.4	25.4	20.9		effect on GFP intensities / GFP expression, in words (GFP(CAG)0 cells): did not affect GFP expression; fold increase in GFP+ cells (GFP(CAG)101 cells [2]; [4]): 5.9 fold; fold increase in GFP- cells (GFP(CAG)101 cells [2]; [4]): 3.1 fold
siMSH2: siRNA targeting MSH2, SEQ ID No. 6 (UCUGCAGAGUGUUGUGCUU; listed as RNA, chemistry not given here)								did not consistently reduce	
siRNA against XRCC1: siRNA targeting XRCC1, SEQ ID No. 8 (CAGUUUGUGAUCACAGCACAGGAAU; listed as RNA, chemistry not given here)								did not affect the GFP expression	
siXPA: siRNA targeting XPA, SEQ ID No. 7 (GCUACUGGAGGCAUGGCUA; listed as RNA, chemistry not given here)								did not significantly reduce	
